Test results: patent US7138361B2, “Herbicidal heterocycles” (E. I. du Pont de Nemours and Company, priority 2000, dated 2006)

Tests used:
[1] = system: woolly cupgrass (Eriochloa villosa); test: Test C postemergence; format: in vivo
In short: (§1)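 Response scores (0 no effect to 100 complete control) came from visual comparison with untreated controls 12 to 14 days after treatment. Preemergence application was made to seeded soil; postemergence, to plants at the 1- to 4-leaf stage.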

[2] = system: morningglory (Ipomoea hederacea); test: Test C postemergence; format: in vivo
In short: as §1

[3] = Rate 250 g/ha, scale 0 to 100 (0 no effect, 100 complete control)
[4] = Rate 500 g/ha, scale 0 to 100 (0 no effect, 100 complete control)
[5] = Rate 125 g/ha, scale 0 to 100, 0 no effect, 100 complete control

Structure (SMILES)	Plant response rating, Cupgrass, Woolly ([1]; Rate 62 g/ha, scale 0 to 100)	Plant response rating, Cupgrass, Woolly [1, 3]	Plant response rating, Cupgrass, Woolly [1, 4]	Plant response rating, Morningglory ([2]; Rate 62 g/ha, scale 0 to 100)	Plant response rating, Morningglory [2, 3]	Plant response rating, Morningglory [2, 4]	Plant response rating, Cupgrass, Woolly [1, 5]	Plant response rating, Morningglory [2, 5]	Plant response rating, Cupgrass, Woolly ([1]; Rate 31 g/ha, scale 0 to 100)	Plant response rating, Morningglory ([2]; Rate 31 g/ha, scale 0 to 100)
CCCC(C)c1ccn(C2CCN(c3ccc(Cl)c(OC)c3)C2=O)n1 (stereo not drawn) [Compound 121]	0	30	60	50	70	100	–	–	–	–
CCC(C)c1ccn(C2SCN(c3cccc(OC(F)(F)F)c3)C2=O)n1 (stereo not drawn) [Compound 40]	0	0	0	0	0	0	0	0	–	–
CC(C)(C)c1ccn(C2SCN(c3cccc(OC(F)F)c3)C2=O)n1 (stereo not drawn) [Compound 36]	–	0	–	–	20	–	0	0	0	0
CCC(C)c1ccn(C2SCN(c3cccc(C(F)(F)F)c3)C2=O)n1 (stereo not drawn) [Compound 20]	–	0	–	–	20	–	0	20	–	–
CCC(CC)c1ccn(C2CCN(c3ccc(C)c(OC)c3)C2=O)n1 (stereo not drawn) [Compound 81]	0	0	–	60	80	–	0	80	0	50
CCC(CC)c1ccn(C2SCN(c3cccc(C(F)(F)F)c3)C2=O)n1 (stereo not drawn) [Compound 25]	–	60	70	–	80	100	40	–	–	–
COc1cc(N2CCC(n3ccc(C(C)C)n3)C2=O)ccc1Cl (stereo not drawn) [Compound 120]	0	0	0	0	90	100	–	–	–	–
CC(C)(C)c1ccn(C2SCN(c3cccc(OC(F)(F)F)c3)C2=O)n1 (stereo not drawn) [Compound 30]	–	40	80	–	40	40	30	0	–	–
O=C1C(n2ccc(C3CCC3)n2)SCN1c1cccc(C(F)(F)F)c1 (stereo not drawn) [Compound 37]	–	0	–	–	0	–	0	0	0	0
CCOc1cc(N2CCC(n3ccc(C(C)(C)C)n3)C2=O)ccc1C (stereo not drawn) [Compound 106]	10	40	–	90	100	–	30	90	0	90
CCCOc1cc(N2CCC(n3ccc(C(C)(C)C)n3)C2=O)ccc1C (stereo not drawn) [Compound 107]	0	0	0	60	100	100	–	–	–	–
Cc1ccc(N2CCC(n3ccc(C(C)(C)C)n3)C2=O)cc1I (stereo not drawn) [Compound 122]	0	20	20	20	90	100	–	–	–	–
CCCC(C)c1ccn(C2OCN(c3cccc(OC(F)(F)F)c3)C2=O)n1 (stereo not drawn) [Compound 91]	20	40	40	0	60	90	20	0	–	–
CCC(CC)c1ccn(C2SCN(c3cccc(C(F)(F)F)c3)C2=O)n1 (stereo not drawn) [Compound 21]	–	–	–	–	–	–	0	60	0	0
COc1cc(N2CCC(n3ccc(C(C)C)n3)C2=O)ccc1C (stereo not drawn) [Compound 85]	30	60	70	60	80	90	30	80	–	–
O=C1C(n2ccc(C3CCC3)n2)SCN1c1cccc(OC(F)(F)F)c1 (stereo not drawn) [Compound 38]	0	0	0	0	0	20	0	0	–	–
CCC(C)c1ccn(C2CCN(c3ccc(C)c(OC)c3)C2=O)n1 (stereo not drawn) [Compound 80]	0	0	0	50	60	100	0	60	–	–
